Results taken from paper PMC9855970, “Cysteine Biosynthesis in Campylobacter jejuni: Substrate Specificity of CysM and the Dualism of Sulfide” (Biomolecules, 2022).

Molecular target: T1, CysM (Cj0912) (Campylobacter jejuni, UniProt P71128)
T1 sequence (P71128 1-299): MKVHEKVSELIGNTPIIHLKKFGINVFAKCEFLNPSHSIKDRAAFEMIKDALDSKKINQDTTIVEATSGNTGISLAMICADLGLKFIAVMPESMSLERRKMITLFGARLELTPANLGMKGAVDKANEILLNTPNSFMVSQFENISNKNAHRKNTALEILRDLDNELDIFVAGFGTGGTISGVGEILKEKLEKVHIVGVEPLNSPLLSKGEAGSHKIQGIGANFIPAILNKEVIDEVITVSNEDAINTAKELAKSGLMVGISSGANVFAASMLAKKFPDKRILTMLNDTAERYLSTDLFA
Experiment: UV-Vis absorbance at […] nm of purified enzyme
Format: binding
Details: 100 mM Tris-HCl pH 7.4, 50 mM NaCl; co-purified, covalent internal Schiff base with lysine

`Cc1ncc(COP(=O)(O)O)c(C=O)c1O` [PLP, pyridoxal 5′-phosphate] was tested, and the “UV-Vis absorbance at 412 nm of purified enzyme” value was “Cj0912 purified with the PLP cofactor in situ”.
